pIC50: −log10 of the molar value.
What was measured:
Assay type in all cases: in vitro ADME
CYP1A2 = CYP1A2 (Homo sapiens (Human), UniProt P05177); experiment: CYP inhibition test, CYP1A2; details: pooled human liver microsomes; 7-ethoxyresorufin O-deethylation; given as 'five kinds'
Excerpt: (§1) Using commercially available pooled human hepatic microsome, and employing, as markers, 7-ethoxyresorufin O-deethylation (CYP1A2), tolbutamide methyl-hydroxylation (CYP2C9), mephenytoin 4'-hydroxylation (CYP2C19), dextromethorphan 0-demethylation (CYP2D6), and terfenadine hydroxylation (CYP3A4) as typical substrate metabolism reactions of human main five CYP enzyme forms (CYP1A2, 2C9, 2C19, 2D6, 3A4), an inhibitory degree of each metabolite production amount by the compound of the present invention was assessed. The reaction conditions are as follows: substrate, 0.5 μmol/L ethoxyresorufin (CYP1A2), 100 μmol/L tolbutamide (CYP2C9), 50 μmol/L S-mephenitoin (CYP2C19), 5 μmol/L dextromethorphan (CYP2D6), 1 μmol/L terfenedine (CYP3A4); reaction time, 15 minutes; reaction temperature, 37° C.; enzyme, pooled human liver microsomes 0.2 mg protein/mL; concentrations of the compound of the present invention, 1, 5, 10, 20 μmol/L (four points). As a reaction solution, each five kinds of substrates, human liver microsomes, or compound of the present invention in 50 mmol/L Hepes buffer were added to a 96-well plate at the composition as described above, and NADPH, as a cofactor was added to initiate metabolism reactions. After the incubation at 37° C. for 15 minutes, a methanol/acetonitrile=1/[…]) solution was added to stop the reaction. After the centrifugation at 3000 rpm for 15 minutes, resorufin (CYP1A2 metabolite) in the supernatant was quantified by a fluorescent multilabel counter or LC/MS/MS, and tolbutamide hydroxide (CYP2C9 metabolite), mephenytoin 4' hydroxide (CYP2C19 metabolite), dextrorphan (CYP2D6 metabolite), and terfenadine alcohol (CYP3A4 metabolite) were quantified by LC/MS/MS. Addition of only DMSO being a solvent dissolving a drug to a reaction system was adopted as a control (100%). Remaining activity (%) was calculated. IC50 was calculated by reverse presumption by a logistic model using the concentration and an inhibition rate.

CYP2C9 = CYP2C9 (Homo sapiens (Human), UniProt P11712); experiment: CYP inhibition test, CYP2C9; details: pooled human liver microsomes; tolbutamide methyl-hydroxylation; given as 'five kinds'
Excerpt: as §1

CYP3A4 [1] = molecular target: T1, CYP3A4 (Homo sapiens (Human), UniProt P08684); experiment: CYP inhibition test, CYP3A4; details: pooled human liver microsomes; terfenadine hydroxylation; given as 'five kinds'
Excerpt: as §1

CYP2C19 = CYP2C19 (Homo sapiens (Human), UniProt P33261); experiment: CYP inhibition test, CYP2C19; details: pooled human liver microsomes; mephenytoin 4′-hydroxylation; given as 'five kinds'
Excerpt: as §1

CYP2D6 = CYP2D6 (Homo sapiens (Human), UniProt P10635); experiment: CYP inhibition test, CYP2D6; details: pooled human liver microsomes; dextromethorphan O-demethylation; given as 'five kinds'
Excerpt: as §1

CYP3A4 [2] = molecular target: T1, CYP3A4; experiment: CYP3A4 (MDZ) MBI test; details: pooled human liver microsomes; midazolam 1-hydroxylation; preincubation 0 vs 30 min
Description: CYP3A4 (MDZ) MBI test is a test of investigating mechanism based inhibition (MBI) potential on CYP3A4 by the enhancement of inhibitory degree of a metabolic reaction caused by the compound of the present invention. CYP3A4 inhibition was evaluated using pooled human liver microsomes by 1-hydroxylation reaction of midazolam (MDZ) as a marker reaction.
The reaction conditions are as follows: substrate, 10 μmol/L MDZ; pre-reaction time, 0 or 30 minutes; substrate reaction time, 2 minutes; reaction temperature, 37° C.; protein content of pooled human liver microsomes, at pre-reaction time 0.5 mg/mL, at reaction time 0.05 mg/mL (at 10-fold dilution); concentrations of the compound of the present invention, at pre-reaction time 1, 5, 10, 20 μmol/L (four points).
Pooled human liver microsomes and a solution of the compound of the present invention in K-Pi buffer (pH 7.4) as a pre-reaction solution were added to a 96-well plate at the composition of the pre-reaction. A part of pre-reaction solution was transferred to another 96-well plate, and 1/10 diluted by K-Pi buffer containing a substrate. NADPH as a co-factor was added to initiate a reaction as a marker reaction (without pre-reaction). After a predetermined time of a reaction, methanol/acetonitrile=1/1 (V/V) solution was added to stop the reaction. In addition, NADPH was added to a remaining pre-reaction solution to initiate a pre-reaction (with pre-reaction). After a predetermined time of a pre-reaction, a part was transferred to another plate, and 1/10 diluted by K-Pi buffer containing a substrate to initiate a reaction as a marker reaction. After a predetermined time of a reaction, methanol/acetonitrile=1/1 (V/V) solution was added in order to stop the reaction. The plate on which each index reaction had been performed was centrifuged at 3000 rpm for 15 minutes, and thereafter 1-hydroxylated midazolam in the supernatant was quantified by LC/MS/MS.
The sample adding DMSO as a solvent to a reaction system instead of a solution dissolving the compound of the present invention was adopted as a control (100%). Remaining activity (%) was calculated at each concentration of the compound of the present invention compared to a control, and IC value was calculated by reverse-presumption by a logistic model using a concentration and an inhibition rate. IC at Preincubation 0 min/IC at Preincubation 30 min was defined as a value of Shifted IC, and a case that Shifted IC was 1.5 or more was regarded as Positive, and a case that Shifted IC was 1.0 or less was regarded as Negative.

[3] = Metabolism stability test (human liver microsomes); details: compound concentration 0.5 μmol/L, 37° C., 30 minutes, NADPH
Description: Using commercially available pooled human hepatic microsomes, the compound of the present invention was reacted for a constant time, a remaining rate was calculated by comparing a reacted sample and an unreacted sample, thereby, a degree of metabolism of the compound of the present invention in liver was assessed.
A reaction was performed (oxidative reaction) at 37° C. for 0 minute or 30 minutes in the presence of 1 mmol/L NADPH in 0.2 mL of a buffer (50 mmol/L Tris-HCl pH 7.4, 150 mmol/L potassium chloride, 10 mmol/L magnesium chloride) containing 0.5 mg protein/mL of human liver microsomes. After the reaction, 50 μL of the reaction solution was added to 100 μL of a methanol/acetonitrile=1/1 (v/v) solution, mixed and centrifuged at 3000 rpm for 15 minutes. The compound of the present invention in the supernatant was quantified by LC/MS/MS, and a remaining amount of the compound of the present invention after the reaction was calculated, letting a compound amount at 0 minute reaction time to be 100%.

CYP2C9, sequence (P11712 whole entry): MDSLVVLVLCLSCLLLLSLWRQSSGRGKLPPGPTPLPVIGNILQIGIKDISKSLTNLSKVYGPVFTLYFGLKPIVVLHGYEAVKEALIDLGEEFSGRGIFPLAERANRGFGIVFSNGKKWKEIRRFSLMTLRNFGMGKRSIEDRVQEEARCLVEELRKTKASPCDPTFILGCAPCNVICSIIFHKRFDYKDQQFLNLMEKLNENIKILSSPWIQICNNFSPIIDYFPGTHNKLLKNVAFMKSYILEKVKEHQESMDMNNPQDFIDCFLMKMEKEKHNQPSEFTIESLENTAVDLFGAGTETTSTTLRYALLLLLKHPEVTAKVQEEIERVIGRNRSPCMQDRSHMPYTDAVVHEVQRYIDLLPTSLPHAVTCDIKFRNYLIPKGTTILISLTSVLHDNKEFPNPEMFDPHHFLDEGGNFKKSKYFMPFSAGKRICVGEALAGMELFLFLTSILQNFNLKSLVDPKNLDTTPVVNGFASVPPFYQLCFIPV
T1 sequence (P08684 whole entry): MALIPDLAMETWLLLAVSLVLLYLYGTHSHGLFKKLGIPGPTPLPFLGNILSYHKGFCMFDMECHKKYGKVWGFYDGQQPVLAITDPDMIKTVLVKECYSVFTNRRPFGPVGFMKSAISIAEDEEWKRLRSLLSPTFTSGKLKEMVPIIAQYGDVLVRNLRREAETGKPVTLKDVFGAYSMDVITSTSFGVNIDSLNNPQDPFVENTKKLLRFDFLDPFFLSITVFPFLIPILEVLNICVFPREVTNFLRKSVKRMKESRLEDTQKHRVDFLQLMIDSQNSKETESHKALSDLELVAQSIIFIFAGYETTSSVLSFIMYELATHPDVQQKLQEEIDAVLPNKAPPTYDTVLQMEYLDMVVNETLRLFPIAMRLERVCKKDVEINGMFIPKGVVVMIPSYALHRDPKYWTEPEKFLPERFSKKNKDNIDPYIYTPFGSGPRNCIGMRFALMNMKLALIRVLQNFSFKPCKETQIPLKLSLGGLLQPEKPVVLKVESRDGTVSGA
CYP2D6, sequence (P10635 whole entry): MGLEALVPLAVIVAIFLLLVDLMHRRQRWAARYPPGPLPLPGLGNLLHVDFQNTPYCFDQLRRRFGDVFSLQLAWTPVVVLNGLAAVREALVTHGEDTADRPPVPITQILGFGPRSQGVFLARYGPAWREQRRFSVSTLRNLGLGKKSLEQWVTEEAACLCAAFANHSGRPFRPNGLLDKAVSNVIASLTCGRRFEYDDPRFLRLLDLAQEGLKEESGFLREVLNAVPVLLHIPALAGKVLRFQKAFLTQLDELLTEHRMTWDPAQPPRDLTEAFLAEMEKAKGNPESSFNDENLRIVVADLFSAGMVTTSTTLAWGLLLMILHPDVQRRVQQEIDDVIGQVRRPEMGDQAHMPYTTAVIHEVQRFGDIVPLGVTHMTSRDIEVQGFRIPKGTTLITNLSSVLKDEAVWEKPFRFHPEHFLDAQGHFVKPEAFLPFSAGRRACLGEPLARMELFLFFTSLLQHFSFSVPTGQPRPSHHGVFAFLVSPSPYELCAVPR
CYP1A2, sequence (P05177 whole entry): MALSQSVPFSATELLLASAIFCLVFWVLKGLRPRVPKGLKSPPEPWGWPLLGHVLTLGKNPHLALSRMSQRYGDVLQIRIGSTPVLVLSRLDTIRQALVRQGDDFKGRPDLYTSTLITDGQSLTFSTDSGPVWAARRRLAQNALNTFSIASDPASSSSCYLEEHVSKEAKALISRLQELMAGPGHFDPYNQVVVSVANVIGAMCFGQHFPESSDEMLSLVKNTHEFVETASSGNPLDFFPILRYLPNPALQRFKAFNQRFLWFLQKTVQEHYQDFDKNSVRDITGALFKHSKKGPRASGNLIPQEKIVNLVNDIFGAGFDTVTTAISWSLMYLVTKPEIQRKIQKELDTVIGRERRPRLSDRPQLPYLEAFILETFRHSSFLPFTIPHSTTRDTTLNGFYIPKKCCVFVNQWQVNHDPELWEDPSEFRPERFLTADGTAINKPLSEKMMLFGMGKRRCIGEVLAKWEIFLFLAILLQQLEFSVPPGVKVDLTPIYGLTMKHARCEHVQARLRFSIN
CYP2C19, sequence (P33261 whole entry): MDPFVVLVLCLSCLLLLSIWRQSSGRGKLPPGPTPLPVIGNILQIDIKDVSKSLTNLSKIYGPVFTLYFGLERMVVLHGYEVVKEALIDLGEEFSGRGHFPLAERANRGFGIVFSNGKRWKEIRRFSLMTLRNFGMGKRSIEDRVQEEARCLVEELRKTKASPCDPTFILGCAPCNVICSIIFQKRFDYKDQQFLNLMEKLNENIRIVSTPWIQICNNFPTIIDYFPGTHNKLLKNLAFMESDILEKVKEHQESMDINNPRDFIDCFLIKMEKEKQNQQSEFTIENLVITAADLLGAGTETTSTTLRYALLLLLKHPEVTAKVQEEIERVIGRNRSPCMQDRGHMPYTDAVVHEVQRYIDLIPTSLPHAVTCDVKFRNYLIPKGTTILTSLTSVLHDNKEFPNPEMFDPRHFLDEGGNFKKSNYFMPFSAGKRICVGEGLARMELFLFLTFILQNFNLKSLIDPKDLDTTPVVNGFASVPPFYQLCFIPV

| SMILES | pIC50 (CYP1A2) | pIC50 (CYP2C9) | pIC50 (CYP3A4 [1]) | pIC50 (CYP2C19) | pIC50 (CYP2D6) | CYP3A4 (MDZ) MBI (Shifted IC judgement) (CYP3A4 [2]) | Remaining rate [3] |
| --- | --- | --- | --- | --- | --- | --- | --- |
| Cc1ccc(-c2nn3c(c2NC(=O)CS(C)(=O)=O)C(=O)N[C@@]2(CCc4cc(OCC(F)(F)F)ccc42)C3)cc1 [Compound I-20] | < 4.70 | < 4.70 | < 4.70 | < 4.70 | < 4.70 | Negative (a case that Shifted IC was 1.0 or less was regarded as Negative) | 74.5% |
| CS(=O)(=O)CC(=O)Nc1c(CCC(F)(F)F)nn2c1C(=O)N[C@@]1(CCc3cc(OCC(F)(F)F)ccc31)C2 [Compound I-58] | < 4.70 | < 4.70 | < 4.70 | < 4.70 | < 4.70 | Negative (a case that Shifted IC was 1.0 or less was regarded as Negative) | 88.4% |
| Cc1ccc(-c2nn3c(c2NC(=O)CS(C)(=O)=O)C(=O)N[C@@]2(CCc4cc(OCC(F)(F)F)ccc42)C3)nc1 [Compound I-6] | < 4.70 | < 4.70 | < 4.70 | < 4.70 | < 4.70 | Negative (a case that Shifted IC was 1.0 or less was regarded as Negative) | 92.4% |
| N#Cc1ccc(-c2nn3c(c2NC(=O)CC(F)(F)F)C(=O)N[C@@]2(CCc4cc(OCC(F)(F)F)ccc42)C3)nc1 [Compound I-14] | < 4.70 | < 4.70 | < 4.70 | < 4.70 | < 4.70 | Negative (a case that Shifted IC was 1.0 or less was regarded as Negative) | 103% |
| CS(=O)(=O)CC(=O)Nc1c(CCC2CC2)nn2c1C(=O)N[C@@]1(CCc3cc(OCC(F)(F)F)ccc31)C2 [Compound I-46] | < 4.70 | < 4.70 | < 4.70 | < 4.70 | < 4.70 | Negative (a case that Shifted IC was 1.0 or less was regarded as Negative) | 78.1% |

Reference: patent US12227509B2, “Dihydropyrazolopyrazinone derivative having MGAT2 inhibitory activity” (Shionogi & Co., Ltd., priority 2019, dated 2025)
